PubChem BioAssay (NCI)
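Tested at 5 concentrations; 48 h exposure; 96-well plates; endpoints linearly interpolated, else capped at highest concentration. GI50 = concentration required for 50% inhibition of growth. Definition used: TGI = concentration required for complete inhibition of growth.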

Assays:
Assay in all cases: NCI-60 cell line screen, 48 h
A498 renal = test system: A498 renal
HL-60(TB) leukemia = test system: HL-60(TB) leukemia
UACC-62 melanoma = test system: UACC-62 melanoma
HS 578T breast = test system: HS 578T breast
UACC-257 melanoma = test system: UACC-257 melanoma
DU-145 prostate = test system: DU-145 prostate
SK-OV-3 ovarian = test system: SK-OV-3 ovarian
BT-549 breast = test system: BT-549 breast
786-0 renal = test system: 786-0 renal
PC-3 prostate = test system: PC-3 prostate

SMILES | GI50 (A498 renal) | TGI (A498 renal) | GI50 (HL-60(TB) leukemia) | TGI (HL-60(TB) leukemia) | GI50 (UACC-62 melanoma) | TGI (UACC-62 melanoma) | GI50 (HS 578T breast) | TGI (HS 578T breast) | GI50 (UACC-257 melanoma) | TGI (UACC-257 melanoma) | GI50 (DU-145 prostate) | TGI (DU-145 prostate) | GI50 (SK-OV-3 ovarian) | TGI (SK-OV-3 ovarian) | GI50 (BT-549 breast) | TGI (BT-549 breast) | GI50 (786-0 renal) | TGI (786-0 renal) | GI50 (PC-3 prostate) | TGI (PC-3 prostate)
CCn1c(-c2nonc2N)nc2ccccc21 | > 25 µM | > 25 µM | > 25 µM | > 25 µM | > 25 µM | > 25 µM | > 22.3 µM | > 25 µM | > 25 µM | > 25 µM | > 25 µM | > 25 µM | > 25 µM | > 25 µM | > 25 µM | > 25 µM | > 25 µM | > 25 µM | > 25 µM | > 25 µM
O=[N+]([O-])c1ccccc1N=Nc1c(O)[nH]c2c(Cl)cccc12 | – | > 68.8 µM | – | > 100 µM | – | > 82.1 µM | – | 43.4 µM | – | > 42.5 µM | – | > 79.2 µM | – | 54.7 µM | – | > 82.3 µM | – | 31.1 µM | – | > 100 µM
O=C1/C(=C/c2ccc(Cl)cc2)CCC1CNc1ccc(Cl)cc1 (centres undefined) | – | 54.8 µM | – | 22.1 µM | – | 7.29 µM | – | 64.9 µM | – | 32.4 µM | – | 31.8 µM | – | > 31.4 µM | – | 65.3 µM | – | 6.73 µM | – | 45.6 µM
Cn1cc(-c2cc(-c3cn(C)c4ccccc34)[nH]n2)c2ccccc21 | 19.6 µM | 90.3 µM | 15.4 µM | 62.8 µM | 16.4 µM | > 100 µM | 18.5 µM | > 100 µM | 80.6 µM | > 100 µM | 15.6 µM | > 100 µM | 31.6 µM | > 100 µM | 15.9 µM | 61.7 µM | 14.1 µM | 41.2 µM | 8.11 µM | > 100 µM
CCN(CC)c1ccc(/C=N/NC(=O)Cc2ccc(Nc3ccnc(C(F)(F)F)c3)cc2)c(O)c1 | 2.64 µM | > 89.5 µM | 0.301 µM | 1.62 µM | 0.48 µM | 7.86 µM | 1.95 µM | > 48.9 µM | 1.82 µM | > 29.2 µM | 0.828 µM | > 100 µM | 0.359 µM | > 100 µM | 0.965 µM | > 29.2 µM | 0.626 µM | > 100 µM | 1.85 µM | > 100 µM
CC(=O)c1cc2c(N)c(C(=O)Nc3cccc4ccccc34)sc2nc1C | 0.34 µM | > 50 µM | 1.36 µM | 4.35 µM | 1.12 µM | > 50 µM | 1.82 µM | > 50 µM | 18 µM | > 50 µM | 1.71 µM | 36.1 µM | 0.512 µM | > 50 µM | 4.03 µM | > 50 µM | 1.87 µM | > 50 µM | 1.75 µM | > 50 µM
NC(=NCCCCCCN=C(N)/N=C(\N)Nc1ccc(Cl)cc1)/N=C(\N)Nc1ccc(Cl)cc1 | 1.6 µM | 6.22 µM | 1.1 µM | 2.49 µM | 1.28 µM | 4.32 µM | 1.43 µM | 4.73 µM | 2.01 µM | 7.93 µM | 1.93 µM | 6.52 µM | 0.916 µM | 5.54 µM | 1.52 µM | 4.24 µM | 1.6 µM | 5.8 µM | 1.74 µM | 6.38 µM
O=c1cc(-c2ccccc2)oc2ccc(Cl)cc12 | – | 98 µM | – | > 46.4 µM | – | > 79.4 µM | – | > 91.8 µM | – | > 74.6 µM | – | > 100 µM | – | > 100 µM | – | > 100 µM | – | > 87.8 µM | – | > 80.3 µM
CC1(C)N=C(N)N=C(N)N1c1ccc(CCCC(=O)Nc2ccc(S(=O)(=O)F)cc2)cc1 | 37.5 µM | > 100 µM | 3.47 µM | > 100 µM | 2.24 µM | > 100 µM | > 100 µM | > 100 µM | 24.8 µM | > 100 µM | 6.98 µM | > 100 µM | > 100 µM | > 100 µM | 22.8 µM | > 100 µM | 4.97 µM | > 100 µM | 0.469 µM | > 100 µM
CC(C)(Oc1ccc(-c2cccc3ccccc23)cc1)C(=O)O | – | > 100 µM | – | 30.1 µM | – | > 100 µM | – | > 100 µM | – | > 100 µM | – | > 100 µM | – | > 100 µM | – | > 100 µM | – | > 100 µM | – | > 100 µM
N[C@@H]1CCCN(c2c(Br)cnc3[nH]cc(NC(=O)C4CC4)c23)C1 | 0.0412 µM | 0.182 µM | 0.318 µM | 4.51 µM | 0.464 µM | > 100 µM | 0.417 µM | 26.1 µM | – | > 100 µM | 0.459 µM | > 100 µM | 0.448 µM | > 100 µM | 0.45 µM | 38 µM | 0.22 µM | 0.709 µM | 20.3 µM | > 100 µM
O=c1[nH]c2cc(Cl)ccc2nc1/C(=N\Nc1ccccc1)C(O)c1ccc2c(c1)OCO2 (centres undefined) | – | > 100 µM | – | > 100 µM | – | > 100 µM | – | > 100 µM | – | > 100 µM | – | > 100 µM | – | > 100 µM | – | > 100 µM | – | > 100 µM | – | > 100 µM
CCCN1C(=O)/C(=C/c2ccc(SC(F)(F)F)cc2)SC1=Nc1ccc(OC)cc1 | 11 µM | 21.9 µM | > 50 µM | > 50 µM | 10 µM | 25.4 µM | 14 µM | 33.4 µM | 2.74 µM | 22.4 µM | 21.8 µM | > 50 µM | 15.2 µM | > 50 µM | 45.1 µM | > 50 µM | 9.56 µM | 25.6 µM | 15.6 µM | > 50 µM
Cc1ccc(-c2nc(NCCOCCOCCN)nc(N3CCN(c4ccccn4)CC3)n2)cc1 | 5.94 µM | 21.7 µM | 18.7 µM | 40.5 µM | 5.99 µM | 13.7 µM | 15.9 µM | 42.3 µM | 6.85 µM | 15.5 µM | 16.6 µM | 31.1 µM | 19.1 µM | 35.6 µM | 14.1 µM | 29.2 µM | 12.4 µM | 26.8 µM | 15.5 µM | 31 µM
COC1C(OC(=O)c2ccc(C)[nH]2)C(O)C(Oc2ccc3c(O)c(NC(=O)c4ccc(O)c(CC=C(C)C)c4)c(=O)oc3c2Cl)OC1(C)C (centres undefined) | – | 33 µM | – | > 100 µM | – | 32.9 µM | – | 61.9 µM | – | > 100 µM | – | 75.4 µM | – | 54.6 µM | – | 42.5 µM | – | 31.9 µM | – | 29.3 µM
CCCCNc1ncnc2c1cnn2-c1ccccc1 | 4.32 µM | > 100 µM | 2.35 µM | 53 µM | 5.04 µM | > 100 µM | 3.48 µM | 58.2 µM | 11 µM | > 83.8 µM | 3.47 µM | 32.1 µM | 3.2 µM | 31.2 µM | 6.71 µM | > 69 µM | 8.9 µM | 53 µM | 2.38 µM | 56.9 µM
CC(=O)ON(OCc1ccc2ccccc2c1)C(C)=O | > 100 µM | > 100 µM | > 100 µM | > 100 µM | > 100 µM | > 100 µM | 55.2 µM | > 100 µM | > 100 µM | > 100 µM | > 100 µM | > 100 µM | > 100 µM | > 100 µM | > 100 µM | > 100 µM | > 100 µM | > 100 µM | > 100 µM | > 100 µM
CNC(=O)CCN1CCN(CC/C=C2\c3ccccc3Sc3ccc(Cl)cc32)CC1 | 6.89 µM | 19.9 µM | 4.33 µM | > 41.1 µM | 1.92 µM | 3.62 µM | 3.67 µM | 20.5 µM | 1.53 µM | 3.06 µM | 11.9 µM | 26.4 µM | 16.4 µM | 31.2 µM | 10.7 µM | 24 µM | 12.1 µM | 27.4 µM | 9.07 µM | > 45 µM
